Experimental findings from patent US6835382B2, “Ii peptide therapeutics to enhance antigen presentation” (University of Massachusetts, priority 1996, dated 2004) are described below.

In assay [1] the target is T1, murine E^d MHC class II allele (Mus musculus, UniProt P01904+P01915).
T1 sequence (P01904 26-255): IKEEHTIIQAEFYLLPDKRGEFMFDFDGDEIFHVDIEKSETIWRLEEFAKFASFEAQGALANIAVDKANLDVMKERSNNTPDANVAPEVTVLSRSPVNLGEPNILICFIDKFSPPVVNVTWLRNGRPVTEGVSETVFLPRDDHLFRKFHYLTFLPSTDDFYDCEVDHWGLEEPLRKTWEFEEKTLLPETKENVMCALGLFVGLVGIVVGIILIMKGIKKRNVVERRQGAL
T1 sequence (P01915 27-264 limits assumed): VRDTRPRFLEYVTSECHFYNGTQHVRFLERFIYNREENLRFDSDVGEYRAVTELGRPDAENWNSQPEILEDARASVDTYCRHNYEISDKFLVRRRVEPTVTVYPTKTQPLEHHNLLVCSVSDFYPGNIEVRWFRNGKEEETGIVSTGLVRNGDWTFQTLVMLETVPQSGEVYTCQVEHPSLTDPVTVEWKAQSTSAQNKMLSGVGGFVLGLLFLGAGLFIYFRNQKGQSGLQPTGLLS
In words: AE101 series peptide prepulse assay, E^d allele. Format: cell-based. As to conditions: Table 35; AE101 series peptide prepulse 64 μM; antigenic peptide 0.3 μM; supernatant dilution 1:4. Here is the method: (§1) Table 35: Activities of multiple substitution analogs of AE235, targeting the E^k and E^d allele, in an AE101 series peptide prepulse assay. In this assay the concentration of AE101 series peptides used during the prepulse was 64 μM. The concentrations of antigenic peptides were 0.3 μM for Ed and 0.4 μM for E^k. The supernatant dilutions taken into the HT-2 cell assay was 1:4 for E and 1:2 for E^k. The AE381 peptide is a head-to-tail cyclization: the amino terminal amino group is coupled through an amide linkage to the carboxyl terminal group. The AE 382 peptide is a side-to-tail cyclization: the epsilon amino group of Lys^4 is coupled through an amide linkage to the carboxyl terminal group.
(§2) AE101 series peptide prepulse assays were carried out in the E^d and E^k systems as described for simultaneous competition assays with the following modifications. Fixed APC were first incubated for 6 h at 1×10^6DMEM-5% FCS with 64 μM of each AE101 series peptide or with PBS. The APC were then washed four times with ten volumes of DMEM-5% FCS, and were cocultured with T hybridoma cells and the indicated submaximal doses of antigenic peptides used in the simultaneous competition assays. The baseline T cell response was measured by culturing T hybridoma cells with antigenic peptide and PBS-pretreated APC.

Assay [2] deals with murine E^k MHC class II allele. In words: AE101 series peptide prepulse assay, E^k allele. The format is cell-based. As to conditions: Table 35; AE101 series peptide prepulse 64 μM; antigenic peptide 0.4 μM; supernatant dilution 1:2. Here is the method:
as §1, §2

In assay [3] the test system is HLA-DR1 molecules. In words: release of biotin-labeled hMBP(90-102) from HLA-DR1 in the presence of unlabeled hMBP (assay II). The format is binding, human. As to conditions: for Relative Release, With unlabeled hMBP(90-102), 1 μM / Relative Release, With unlabeled hMBP(90-102), 64 μM: Table 37, unlabeled hMBP(90-102) 250 μM; for Relative Release, With unlabeled hMBP(90-102), 1 μM: AE101 series compound 1 μM; for Relative Release, With unlabeled hMBP(90-102), 64 μM: AE101 series compound 64 μM.

For assay [4], the system named is HLA-DR1 molecules. In words: exchange of biotinylated hMBP(90-102) into antigenic peptide-loaded HLA-DR1 (assay III). Format: binding, human. As to conditions: Table 38; HLA-DR1 preloaded with unlabeled hMBP(90-102) 50 μM; exchange with biotin-labeled hMBP(90-102) 50 μM, 37° C., 1 h; fraction of positive control o.d.; no enhancement = 0.08.
Assay [5] has as its target T2, HLA-DR1 molecules (Homo sapiens, UniProt P01903+P01911, A100R/D57E/F55L/F60I/F76Y/I96L/L162R/M171V/P40L/Q125E/R42F/V115G/Y59C).
T2 construct: The HLA-DR alpha gene was truncated after Asn^192 to remove transmembranal and cytoplasmic regions from the protein product; A gene coding for the HLA-DR1 beta chain was truncated after position Lys^198, again to delete the transmembranal region; made in house; host or cells: insect cell line printed as HS / H5 (Invitrogen), co-infected with two baculoviruses; concentrated culture supernatant captured on 12CA5 antibody
In words: binding of biotin-labeled hMBP(90-102) to "empty" HLA-DR1 (assay IV). Conditions: Table 39; AE101 series compound 64 μM; biotin-labeled hMBP(90-102) 50 μM, 37° C., 1 h; no enhancement = 1.

For assay [6], the system named is HLA-DR1 molecules. Description: release of biotin-labeled hMBP(90-102) from HLA-DR1 without unlabeled antigenic peptide (assay I). Conditions: for Relative Release: Table 36, fraction of o.d. of positive control (PBS only = 1.0; negative control = 0.0); for Relative Release / Relative Release, Without unlabeled hMBP(90-102), 64 μM: AE101 series compound 64 μM; for Relative Release, Without unlabeled hMBP(90-102), 1 μM / Relative Release, Without unlabeled hMBP(90-102), 64 μM: Table 37, no unlabeled hMBP(90-102); for Relative Release, Without unlabeled hMBP(90-102), 1 μM: AE101 series compound 1 μM. Format: binding, human.

Non-standard residues stand in square brackets, D forms with d.

For Ac-YRMK-NH2 [AE117], the “T cell response relative to baseline with PBS-pretreated APC (NONE = 1.0), E^d” value (shortened to “T cell response relative to baseline … E^d”) in assay [1] came out at 4.4. Besides, the “T cell response relative to baseline with PBS-pretreated APC (NONE = 1.0), E^k” value (from here on “T cell response relative to baseline … E^k”) in assay [2] was 2.3.

In the case of Ac-LRMKLPK-NH2 [AE114], the “T cell response relative to baseline … E^d” value in assay [1] was 6.0. For the same substance, the “release of antigenic peptide from HLA-DR1 in presence of second antigenic peptide, in words” value with HLA-DR1 molecules [3] (excess second antigenic peptide) is given as “can catalyze the release of antigenic peptide from the antigenic peptide binding site only in the presence of excess quantities of a second antigenic peptide”. Further, the “T cell response relative to baseline … E^k” value in assay [2] came out at 2.0.

Regarding “Ac-LRMK Y PK-NH2 (Ac-LRMKYPK-NH2; not fully specified; printed as Ac-LRMK Y PK-NH2) [AE235]”, the “T cell response relative to baseline … E^d” value in assay [1] turned out to be 15.6. The “Relative Binding” value in the assay with HLA-DR1 molecules [4] amounted to 0.15. Further, the “Relative Enhancement” value in the assay with HLA-DR1 molecules [5] was 0.61. Besides, in the assay on HLA-DR1 molecules [3], the “Relative Release, With unlabeled hMBP(90-102), 1 μM” value is given as 0.48 and the “Relative Release, With unlabeled hMBP(90-102), 64 μM” value is given as 0.6. The “T cell response relative to baseline … E^k” value in assay [2] was 2.1. Moreover, the “release of biotin-labeled hMBP(90-102) from HLA-DR1 without second unlabeled antigenic peptide, in words” value in the assay on HLA-DR1 molecules [6] (Table 36 (compounds tested at 64 μM)) was “did not release”. Further, in the assay on HLA-DR1 molecules [6], the “Relative Release” value was determined as 0.79; the “Relative Release, Without unlabeled hMBP(90-102), 1 μM” value was found to be 1.05; the “Relative Release, Without unlabeled hMBP(90-102), 64 μM” value worked out at 0.81.

As for “Ac-YRMKL hydrP KSAK-NH2 (Ac-YRMKL[hydrP]KSAK-NH2) [AE143]”, in the assay with HLA-DR1 molecules [3], the “Relative Release, With unlabeled hMBP(90-102), 1 μM” value came out at 0.35 and the “Relative Release, With unlabeled hMBP(90-102), 64 μM” value was 0.21. Besides, in the assay with HLA-DR1 molecules [6], the “Relative Release, Without unlabeled hMBP(90-102), 1 μM” value amounted to 0.51 and the “Relative Release, Without unlabeled hMBP(90-102), 64 μM” value was 0.58.

For YRMKLPKSAKPVSQMR [AE101], the “Relative Binding” value with HLA-DR1 molecules [4] amounted to 0.31. Besides, the “Relative Enhancement” value in the assay with HLA-DR1 molecules [5] is reported as 2.66. In addition, the “release of hMBP(90-102) from HLA-DR1” value in the assay on HLA-DR1 molecules [6] (AE peptide at 125 nM, additional experiments) is given as “completely release”. Also, the “release of biotin-labeled hMBP(90-102) (Relative Release)” value with HLA-DR1 molecules [6] (AE peptide at 1 μM without unlabeled hMBP(90-102)) came to 0.02. For the same substance, the “Relative Release” value with HLA-DR1 molecules [6] is −0.33.

Turning to “Ac-LR L KLPK-NH2 (Ac-LRLKLPK-NH2; not fully specified; printed as Ac-LR L KLPK-NH2) [AE206]”, the “T cell response relative to baseline … E^d” value in assay [1] is listed as 5.0. Moreover, in the assay with HLA-DR1 molecules [4], the “Relative Binding” value is given as −0.13. The “Relative Enhancement” value with HLA-DR1 molecules [5] came out at 2.57. Also, in the assay on HLA-DR1 molecules [3], the “Relative Release, With unlabeled hMBP(90-102), 1 μM” value is listed as 0.03 and the “Relative Release, With unlabeled hMBP(90-102), 64 μM” value is −0.29. The “T cell response relative to baseline … E^k” value in assay [2] was found to be 2.7. In the assay on HLA-DR1 molecules [6], the “Relative Release, Without unlabeled hMBP(90-102), 1 μM” value was found to be 0.58 and the “Relative Release, Without unlabeled hMBP(90-102), 64 μM” value is 0.08.

As for “Ac-LRMK D PK-NH2 (Ac-LRMKDPK-NH2) [AE230]”, the “T cell response relative to baseline … E^d” value in assay [1] stood at 0.8. For the same substance, the “T cell response relative to baseline … E^k” value in assay [2] is 1.6.
